Literature values, collected in patent publication EP1223952B1, “METHODS FOR TREATMENT OF SOLID TUMORS AND METASTASIS BY GENE THERAPY” (Aguilar-Cordova, Carlos, Estuardo, priority 1999, dated 2001).
Each block holds one compound with its values, some of them ahead of it.

Experiments:
[1] = in combination with an LHRH agonist
[2] = oral, at all doses
[3] = in vivo

diarrhea [1]: 12% | gynecomastia [1]: 9% | hot flashes [1]: 61% | impotence [1]: 33% | loss of libido [1]: 36% | nausea/vomiting [1]: 11% | other [1]: 7% | other GI [1]: 6%
Compound: CC(C)C(=O)Nc1ccc([N+](=O)[O-])c(C(F)(F)F)c1 [Eulexin, flutamide]

Peak plasma valacyclovir concentrations [2]: less than 0.5 mcg/ml | arthralgia (in vivo): 1-6% | depression (in vivo): 1-7% | dizziness or abdominal pain (in vivo): 2-11% | headache (in vivo): 14-35% | nausea (in vivo): 6-15 % of patients | vomiting (in vivo): 1-6% | abnormal liver function tests (laboratory abnormalities): 1-4 % of patients | anemia, leukopenia, thrombocytopenia and elevated serum creatinine (laboratory abnormalities): ≤ 1 % of patients
Compound: CC(C)[C@H](N)C(=O)OCCOCn1cnc2c(=O)[nH]c(N)nc21 [valacyclovir, Valacyclovir]

Elevation of LDH (> 2 x normal) [3]: 19.6%
Compound: leuprolide acetate [Lupron Depot]
